{
  "source": "paper PMC11969024",
  "about": "“Development of chemokine network inhibitors using combinatorial saturation mutagenesis” (Communications Biology, 2025)",
  "key": {"J:CXCR1 cells": {"system": "J:CXCR1 cells", "experiment": "Chemokine dose-response, J:CXCR1 cell migration", "assay_type": "cell-based, human", "details": "mean of 7 replicates", "description": "(§1) Cell lines were confirmed mycoplasma free by monthly testing using a MycoAlert^TM kit (LT07-118, Lonza) following the manufacturer’s instructions. THP1 cells: THP1 cells (ECACC 88081201, a human monocyte leukemia cell line[51]) were obtained from ECACC and were cultured in T175 flasks at 0.3-1 × 10^6 cells/mL in Roswell Park Memorial Institute (RPMI) 1640 medium (R0883, Sigma) with 10% FBS (F9665, Sigma) and 5mM L-glutamine (G7513, Sigma), 37 °C, 5% CO2. J:CXCR1 cells: The J:CXCR1 cell line was cultured in the same manner as THP1 cells at 0.15-1 × 10^6 cells per mL[37]. Activated T-cells: T-cells were isolated, activated and expanded as follows. […] The final pellet was resuspended in 1 mL of MACS buffer per 5 mL of initial blood volume and counted using cell size FSC-H/SSC-H parameters with gate settings previously defined by immunostaining (see below). […]\n(§2) Cell counts were determined using an ATTUNE NxT Flow Cytometer with Cytkick autosampler (ThermoFisher), based on cell size parameters FSC-H/SSC-H, with previously defined gate settings. FSC-H/SSC-H gate settings for primary white blood cells from buffy coats were determined using flow cytometry to establish the granulocyte, monocyte and lymphocyte populations (Supplementary Fig. 13). […]"}, "Lymphocytes": {"system": "Lymphocytes", "experiment": "Buffy coat lymphocyte migration induced by disease chemokine pools, inhibition by peptide", "assay_type": "cell-based, human", "details": "peptide 10 uM; pool at EC50; compared to HD2SCR", "source_text": "(§3) To assess the potential of combinatorially mutated peptides as therapeutic agents in inflammatory disease, we explored their efficacy against pools of chemokines known to be produced in diseased tissues. We developed the chemokine pool approach to represent the naturally occurring mix of chemokines present in diseased tissues as chemokines have well-known synergistic interactions that cannot be recapitulated when studied individually[8],[11],[55]–[60]. We chose three diseases, atherosclerotic plaque, rheumatoid arthritis, and type 1 diabetes as exemplars, as there is considerable evidence supporting the role of chemokines in their pathology[2]–[4]. To develop disease-relevant chemokine pools, we identified well-characterised bulk RNA-sequencing datasets from atherosclerotic plaque (GSE198600) and rheumatoid arthritis synovium (GSE198520)[61],[62]. […] We analysed chemokine expression levels (in transcripts per million) from these datasets (Supplementary Fig. 6). For each disease we designed a synthetic chemokine pool such that individual chemokine molar concentrations were at ratios determined by the mean relative expression of chemokines in the RNA-sequencing dataset. […] In these experiments we also assessed the effect of EVA4, the parental CC-chemokine binding evasin from which the HD2 series was derived."}, "Monocytes": {"system": "Monocytes", "experiment": "Buffy coat monocyte migration induced by disease chemokine pools, inhibition by peptide", "assay_type": "cell-based, human", "details": "peptide 10 uM; pool at EC50; compared to HD2SCR", "source_text": "as §3"}, "THP1 cells": {"system": "THP1 cells", "experiment": "THP1 cell migration (Transwell) induced by individual chemokines, inhibition by peptide", "assay_type": "cell-based, human", "description": "as §1, §2"}, "[1]": {"system": "activated CD8+T-cells (ATC)", "experiment": "Activated T-cell (ATC) migration induced by individual chemokines, inhibition by peptide", "assay_type": "cell-based, human", "details": "peptide 10 uM; chemokines at EC80; Dunnett's test", "description": "Cell lines were confirmed mycoplasma free by monthly testing using a MycoAlert^TM kit (LT07-118, Lonza) following the manufacturer’s instructions. THP1 cells: THP1 cells (ECACC 88081201, a human monocyte leukemia cell line[51]) were obtained from ECACC and were cultured in T175 flasks at 0.3-1 × 10^6 cells/mL in Roswell Park Memorial Institute (RPMI) 1640 medium (R0883, Sigma) with 10% FBS (F9665, Sigma) and 5mM L-glutamine (G7513, Sigma), 37 °C, 5% CO2. J:CXCR1 cells: The J:CXCR1 cell line was cultured in the same manner as THP1 cells at 0.15-1 × 10^6 cells per mL[37]. Activated T-cells: T-cells were isolated, activated and expanded as follows. Briefly, density gradient centrifugation using Lymphoprep^TM density gradient medium (07801, […] Technologies) and a SepMate^TM isolation tube (85450, […] Technologies) was used to isolate peripheral blood mononuclear cells from human leukocyte cones. Two rounds of purification using a human CD8 + T-cell isolation kit (480011, BioLegend) were used to isolate CD8 + T-cells from peripheral blood mononuclear cells. Activation of CD8 + T-cells was performed in ImmunoCult^TM-XF T-cell expansion medium (10982, […] Technologies) with an anti-CD3/anti-CD28 T-cell activator at 25 μl/ml (10991, […] Technologies), supplemented with 10 ng/ml recombinant human IL-2 (200-02, PeproTech) with 1% penicillin/streptomycin. T-cells were passaged every 2–3 days in TexMACS medium (130-097-196, Miltenyi Biotec), supplemented with 10 ng/ml human IL-2 (200-05-250, Peprotech) and incubated at 37 °C in 5% CO2. CD8 + T-cells were frozen at day 10-13 after initial activation, at 20×10^6 cell/ml in TexMACS medium supplemented with 10% DMSO (D2650, Sigma) in liquid nitrogen. Activated CD8^+ T-cells were recovered in TexMACs medium at 0.3 × 10^6 cell/ml and incubated at 37 °C in 5% CO2, 24 h prior to use. For buffy coat experiments a mixture of primary human monocytes, granulocytes and lymphocytes was isolated from human buffy coat. Briefly, RBCs were sedimented in HetaSep (07806, […] Technologies) with 1 mL of HetaSep per 5 mL of blood for 15 min at 37 °C. The buffy coat layer was collected from the top and washed in 50 ml MACS buffer (PBS (P4417, Sigma), 0.5% BSA (A7030, Sigma), 0.075% EDTA (E5134, Sigma), pH 7.2), by centrifugation at 2000 g for 10 min at room temperature. The pellet was resuspended in 10 mL of 1x RBC lysis solution (130-094-183, Miltenyi Biotec) and lysed for 10 min at room temperature. The cells were then washed in MACS buffer twice as above. The final pellet was resuspended in 1 mL of MACS buffer per 5 mL of initial blood volume and counted using cell size FSC-H/SSC-H parameters with gate settings previously defined by immunostaining (see below). The leukocytes were then resuspended in assay buffer for cell migration and used within 30 min of isolation.\nCell counts were determined using an ATTUNE NxT Flow Cytometer with Cytkick autosampler (ThermoFisher), based on cell size parameters FSC-H/SSC-H, with previously defined gate settings. FSC-H/SSC-H gate settings for primary white blood cells from buffy coats were determined using flow cytometry to establish the granulocyte, monocyte and lymphocyte populations (Supplementary Fig. 13). Briefly, cells were labelled with anti-CD3 (Miltenyi Biotec, 130-113-135) to identify the T cell population, anti-CD14 (Miltenyi Biotec, 130-110-578) to identify the monocyte population, and with anti-CD16 (Miltenyi Biotec, 130-113-951) to identify the granulocyte population. Negative control cells were labelled with anti-human IgG1 (Miltenyi Biotec, 130-113-434). All antibodies were allophycocyanin (APC) conjugated. 100,000 white blood cells were added to Eppendorf tubes and centrifuged at 300 g for 3 min. The supernatant was discarded, and the cells resuspended in 98 µL of MACS buffer (1× PBS, 2 mM EDTA and 0.5% BSA, sterile filtered). 2 µl of antibody was added to the cells. […]"}, "[2]": {"system": "J:CXCR1 cells (Jurkat cells stably transfected with CXCR1)", "experiment": "J:CXCR1 cell migration induced by CXCL6, inhibition by peptide", "assay_type": "cell-based, human", "details": "peptide 10 uM; CXCL6 at EC80; Dunnett's test", "description": "as §1, with “follows. Briefly, density gradient centrifugation using Lymphoprep^TM density gradient medium (07801, […] Technologies) and a SepMate^TM isolation tube (85450, […] Technologies) was used to isolate peripheral blood mononuclear cells from human leukocyte cones. Two rounds of purification using a human CD8 + T-cell isolation kit (480011, BioLegend) were used to isolate CD8 + T-cells from peripheral blood mononuclear cells. Activation of CD8 + T-cells was performed in ImmunoCult^TM-XF T-cell expansion medium (10982, […] Technologies) with an anti-CD3/anti-CD28 T-cell activator at 25 μl/ml (10991, […] Technologies), supplemented with 10 ng/ml recombinant human IL-2 (200-02, PeproTech) with 1% penicillin/streptomycin.” for “follows.”\nas §2"}, "[3]": {"system": "THP1 cells, activated T-cells (ATC), J:CXCR1 cells", "experiment": "Meta-analysis of individual chemokine-induced cell migration experiments", "assay_type": "cell-based, human", "details": "seven CC and three CXC chemokines, Dunnett's test", "description": "Cell migration assays were performed as follows. THP1 cell migration. Briefly, 300000 cells/well were added to the top chamber of a 5-µm 96-well Transwell insert (3387, Corning) in 50 µL of cell migration media (RPMI-1640 (R0883, Sigma), 0.5% FBS (F9665, Sigma), 4mM L-Glutamine (G7513, Sigma), 0.05% DMSO (D4540, Sigma)). The bottom chamber contained 150 µL of migration media with chemokine and peptide. Cells were migrated at 37 °C in 5% CO2 for 4 h. J:CXCR1 cell migration was performed exactly as above using a 3-µm Transwell insert (3385, Corning). Activated T-cell migration. Briefly, 100000 cells/well were added to the top chamber of a 3-µm Transwell insert (3385, Corning) in 50 µL of migration media (HBSS (14025-092, Life Technologies), 0.1% protease free bovine serum albumin (A7030, Sigma), 0.05% DMSO (D4540, Sigma)). The bottom chamber contained 150 µL of migration media with chemokine and peptide. Cells were migrated at 37 °C in 5% CO2 for 2 h. Buffy coat migration. Briefly, a mixture of all cell types at 100000 cells/well were added to the top chamber of a 3-µm Transwell insert (3385, Corning) in 50 µL of migration media (HBSS (14025-092, Life Technologies), 0.1% protease free bovine serum albumin (A7030, Sigma), 0.05% DMSO (D4540, Sigma). The bottom chamber contained 150 µL of migration media with chemokine and peptide. Cells were migrated at 37 °C in 5% CO2 for 2 h. Analysis of cell migration. The migration plate was shaken at 850 RPM for 10 min, and media from bottom plate transferred to a round-bottomed 96 well plate (353910, Falcon). Cells were counted by flow cytometry as described above. Experiments were performed at chemokine EC80 for individual chemotaxis experiments and at EC50 for the pooled chemokine experiments, with three technical replicates, and at least three biological replicates. Statistical significance of differences between control and test groups was evaluated using a two-sided Dunnett’s test with multiple testing correction. Chemokine EC80 or chemokine pool EC50 values were as determined by performing a chemokine dose-response against the cell type and fitting the dose-response curve with a 3-parameter log-logistic model, where the maximal response is fixed at 100% response. […] IC50 was determined by performing inhibitor dose-response experiments and fitting the dose-response curve with a 3-parameter log-logistic model, fixing the bottom of the curve to zero. […] For summary statistics and comparisons, pEC50, pEC80 and pIC50 were calculated as the negative log10 of EC50, EC80 or IC50 expressed in moles/litre.\nSample size and estimated effect sizes were not formally calculated for cell-based or phage-display experiments and no randomization was performed. […]"}, "[4]": {"details": "lyophilised peptide, data provided by the manufacturer, ref GenScript, cited from earlier work"}},
  "data": [
    {"substance": "CXCL6: human chemokine, Peprotech 300-41", "values": [
      {"measurement": "Mean pEC50", "setting": "J:CXCR1 cells", "value": "7.71 [M]"},
      {"measurement": "Mean pEC80", "setting": "J:CXCR1 cells", "value": "7.45 [M]"}
    ]},
    {"substance": "DDDDWDAYAPIWCYFT [HD2CM452, combinatorially mutated HD2 peptide, CM-maxCC group]", "values": [
      {"measurement": "inhibition of lymphocyte migration, atherosclerosis pool", "setting": "Lymphocytes", "value": "significant inhibition"},
      {"measurement": "inhibition of lymphocyte migration, rheumatoid arthritis pool", "setting": "Lymphocytes", "value": "significant inhibition"}
    ]},
    {"substance": "DDDDWDDYAPITCYFD [HD2CM539, combinatorially mutated HD2 peptide, CM-max group]", "values": [
      {"measurement": "inhibition of monocyte migration, insulitis pool", "setting": "Monocytes", "value": "significant inhibition"}
    ]},
    {"substance": "DWDDWTAYWDLVCYFD [HD2CM3085, combinatorially mutated HD2 peptide, CM-min group]", "values": [
      {"measurement": "inhibition of CCL8 migration compared to the parental peptide", "setting": "THP1 cells; peptide 0.1 uM, CCL8 at EC80", "value": "significantly worse"},
      {"measurement": "inhibition of CCL7 migration compared to the parental peptide", "setting": "THP1 cells; peptide 5 uM, CCL7 at EC80", "value": "no differently"}
    ]},
    {"substance": "EEDDYTAYAPLTCYFC [HD2T16C, HD2 point mutant]", "values": [
      {"measurement": "inhibition of CCL19, CCL21, CXCL9, and CXCL11-induced migration of ATCs compared to parental HD2", "setting": "[1]", "value": "significant improvement in inhibition"},
      {"measurement": "inhibition of CXCL6-induced migration of J:CXCR1 cells compared to parental HD2", "setting": "[2]", "value": "significant improvement in inhibition"},
      {"measurement": "migrated cell count over all chemokines studied, compared to HD2 (meta-analysis)", "setting": "[3]", "value": "significant improvement over HD2"}
    ]},
    {"substance": "EEDDYTAYWPLTCYFT [HD2A9W]", "values": [
      {"measurement": "inhibition of CCL19, CCL21, CXCL9, and CXCL11-induced migration of ATCs compared to parental HD2", "setting": "[1]", "value": "significant improvement in inhibition"},
      {"measurement": "inhibition of CXCL6-induced migration of J:CXCR1 cells compared to parental HD2", "setting": "[2]", "value": "significant improvement in inhibition"},
      {"measurement": "migrated cell count over all chemokines studied, compared to HD2 (meta-analysis)", "setting": "[3]", "value": "significant improvement over HD2"},
      {"measurement": "Solubility, Water", "setting": "[4]; C-terminal amide", "value": "Insoluble"},
      {"measurement": "Solubility, DMSO", "setting": "[4]", "value": "Insoluble"},
      {"measurement": "Solubility, HCOOH", "setting": "[4]", "value": "Soluble"},
      {"measurement": "Solubility, PBS", "setting": "[4]", "value": "Insoluble"}
    ]}
  ]
}
